According to patent US12618847B2 (Purdue Research Foundation, priority 2020, dated 2026):
Where no end group is shown, it is not given here. [ ]: non-standard residue; d: D form. Phe(4-Cl) = N[C@@H](Cc1ccc(Cl)cc1)C(=O)O

Columns and labels:
[1] = test system: human purified 20S proteasome; assay: Detection of small molecule stimulators with TAS probes using purified 20S proteasome (FIG. 7B-7D); type: biochemical; conditions: detected with TAS1 and TAS3
Experimental: FIG. 7B-7D show the analysis of TAS probes (TAS-1-B, TAS-2-C, TAS-3-D) for their ability to detect different small molecule stimulators using human purified 20S proteasome.
All three probes were able to detect stimulation is determined by an increase in the % activity over 60 min as compared to the DMSO control. Both TAS1 and TAS3 can differentiate between weak (TRC-1 and TCM-1) and strong proteasome stimulators (MK-886).

[2] = test system: T1, proteasome; assay: Proteasome stimulation in cells monitored with TAS probes; type: cell-based
T1 construct: endogenous in cells; host or cells: A549 (inferred; the stimulator paragraph says only 'cells')
From the text: In addition to determining if our probes are capable of detecting a decrease in proteasome activity, we were also interested in monitoring molecules which have shown to increase proteasome activity, also known as proteasome stimulators. […] However, this method requires transfection of the MT-fusion protein into cells and analysis by Western blot. Given the promising results with MG-132, we expected our probes to be sensitive enough to detect proteasome stimulation in a similar manner. Using three molecules reported to have various degrees of stimulation, cells were dosed for one hour before washing and adding in each probe. The samples were then monitored for changes in fluorescence and analyzed in the same way as the MG-132 experiment.
Previously proteasome stimulators had been discovered using a biochemical assay that required purified proteasome. As with all enzyme purifications, the batch to batch activity can vary greatly, leading to inconsistent results. […]
Using three different stimulating small molecules previously validated using other methods, we found both TAS1 and TAS3 would be suitable to use in such an assay. […] An increase in proteasome activity can be detected after as little as 15 min of incubation time, which can help to increase throughput during a screening campaign. […]

[3] = biological target: 20S CP (Homo sapiens, UniProt P20618+P28074); assay: Fluorescence hydrolysis of probes by purified 20S CP (plate reader); type: biochemical; conditions: 30 μM probe
Experimental: The peptide recognition sequence used was based on the commercially available 4-mer AMC probe (FIG. 1A), specifically Leu-Leu-Val-Tyr (SEQ ID NO: 1), to generate TAS1 (FIG. 1B). To determine if TAS1 had any enhanced sensitivity, the two probes were compared under the same conditions with purified 20S CP. Briefly, the probes were incubated in triplicate at 10 and 30 μM with 9 nM […] at 37° C. The change in fluorescence was monitored for two hours and the endpoint values were averaged and graphed for comparison (FIG. 1C). Because the two fluorophores have different excitation and emission wavelengths, the two experiments were performed separately but using the same conditions for the plate reader (i.e. gain, number of flashes, settling time, etc.). […] Since, unlike Suc-LLVY-AMC (SEQ ID NO: 1), TAS1 has the potential to have more than one cleavage site which could result in an increase in fluorescence (on either side of Rh110), we confirmed that the increase in signal is only from the recognition and cleavage of the peptide at the Tyr moiety by analyzing the 30 μM TAS1 samples by LC/MS (FIG. 2).
With these new peptide sequences in hand, we returned to incorporating the Rh110-peptoid moiety and to compare the cleavage of TAS1-3 with the 20S CP. We incubated all three probes at various concentrations with 9 nM 20S CP and monitored the change in fluorescence using a microplate reader. […] In order to compare the three probes, we fit a linear regression for the points from 10-60 min for 30 μM of each probe to obtain a rate for the change in fluorescence (Table 1). Of the three, TAS1 was hydrolyzed the quickest, although the slope for TAS2 was similar. […] To confirm that the change in fluorescence was due to amide bond cleavage at the expected site on the peptide, we analyzed the samples at a concentration of 30 μM by LC/MS (FIG. 3).

[4] = test system: A498; assay: TAS2 rate of hydrolysis in live cells; type: cell-based; conditions: A498, TAS2 10 μM, 5,000 cells/well
Experimental: (§1) To compare these cells lines, each was plated at the same density of 5,000 cells/well in a black 96 well plate—for adherent cells lines A498, SK-MEL-2, MEL-92.1, SH-SY5Y and HEK293T, the cells were allowed to adhere overnight before using in the assay; MM.1R cells were plated and used directly after. Samples were incubated with either DMSO or TAS2 (10 μM) for 15 min, washed with PBS three times before putting the plate in a microplate reader to record the fluorescence intensity over 90 min. The experiment was performed in technical triplicate and experimental duplicate for each cell line and the rate of hydrolysis of TAS-2 was determined, Table 2.

[5] = test system: MM.1R; assay: TAS2 rate of hydrolysis in live cells; type: cell-based; conditions: TAS2 10 μM, 5,000 cells/well
Experimental: as §1

[6] = test system: SH-SY5Y; assay: TAS2 rate of hydrolysis in live cells; type: cell-based; conditions: TAS2 10 μM, 5,000 cells/well
Experimental: as §1

[7] = test system: HEK-293T; assay: TAS2 rate of hydrolysis in live cells; type: cell-based; conditions: TAS2 10 μM, 5,000 cells/well
Experimental: as §1

[8] = test system: MEL-92.1; assay: TAS2 rate of hydrolysis in live cells; type: cell-based; conditions: MEL-92.1, TAS2 10 μM, 5,000 cells/well
Experimental: as §1

[9] = test system: SK-MEL-2; assay: TAS2 rate of hydrolysis in live cells; type: cell-based; conditions: SK-MEL-2, TAS2 10 μM, 5,000 cells/well
Experimental: as §1

[10] = test system: A549 cells; assay: Probe cleavage in live A549 cells with or without MG-132 pretreatment; type: cell-based; conditions: 10 μM probe, 5,000 cells/well, 90 min
Experimental: We next sought to determine if the TAS probes would be suitable for cell-based assays. To accomplish this, A549 cells were plated at a density of 5,000 cells/well in a black 96 well plate with a black bottom. After allowing the cells to adhere to the plate, the samples were washed with PBS three times then dosed with 10 μM of each probe in modified KRBH buffer. The change in fluorescence was recorded on a microplate reader for 90 min. After allowing the signal to equilibrate for […], each sample was set to zero and the future time points were scaled accordingly. As was done with the biochemical data, a linear regression was fit to each set of data. From the slope, it is observed that the rate for TAS2 was the highest. To determine the in-cell selectivity, a set of samples pretreated with MG-132 (10 μM), a proteasome inhibitor, was included for each probe. These samples were pre-incubated with MG-132 in cell culture media for one hour before washing with PBS and dosing with each probe in modified KRBH buffer. […] To ensure this decrease was not a consequence of cell death, cells were treated in the same way and analyzed using Cell-Titer Glo.

Row | Compound | Proteasome stimulator strength (% activity over 60 min vs DMSO) [1] | Increase in proteasome activity vs DMSO ([2]; probe TAS1, cells dosed one hour) | Increase in proteasome activity vs DMSO ([2]; probe TAS3, cells dosed one hour) | Rate of Hydrolysis ([3]; 9 nM purified 20S CP, linear regression 10-60 min) | Cleavage products after incubation with 20S CP (LC/MS) ([3]; LC/MS) | Rate of Hydrolysis [4] | Rate of Hydrolysis [5] | Rate of Hydrolysis [6] | Rate of Hydrolysis [7] | Rate of Hydrolysis [8] | Rate of Hydrolysis [9] | Rate of probe cleavage in A549 cells (slope) [10]
1 | CC(C)c1ccc2c(c1)c(SC(C)(C)C)c(CC(C)(C)C(=O)O)n2Cc1ccc(Cl)cc1 [MK-886] | strong | greater than 3 fold | greater than 3 fold |  |  |  |  |  |  |  |  | 
2 | TAS2: Rh110-based peptide/peptoid hybrid probe with Phe(4-Cl) as Tyr substitute (LLV[Phe(4-Cl)]; also: Rh110-based probe, place not given here, peptide/peptoid hybrid) |  |  |  | 63.8 ΔRFU/min | only produced the expected cleavage products | 39.6 ± 4.8 ΔRFU/min | 81.6 ± 25.5 ΔRFU/min | 5.8 ± 0.4 ΔRFU/min | 6.7 ± 3.2 ΔRFU/min | 16.4 ± 2.6 ΔRFU/min | 12.1 ± 1.3 ΔRFU/min | highest
